From PMC8233136, “Monomeric bile acids modulate the ATPase activity of detergent-solubilized ABCB4/MDR3” (Journal of Lipid Research, 2021)
Where “and” joins values, the source holds several entries; their conditions need not be identical. Equal entries are not always repeated.

How the values were obtained:
[1] = target: T1, human ABCB4 (Homo sapiens, UniProt P21439); assay: ATP hydrolysis (malachite green) of detergent-solubilized, purified ABCB4: modulation of basal ATPase activity; assay type: biochemical; conditions: for Slope: Hill coefficient of allosteric sigmoidal fit of ATPase stimulation; for EC50: stimulation of basal ATPase activity, allosteric sigmoidal fit; for EC50 / Emax / Concentration at which maximal stimulation (plateau) of ATPase activity is reached / Max. Stimulation (%): 0-1,000 μM; for Emax / Max. Stimulation (%): basal ABCB4 ATPase activity set to 0%; for Concentration at which maximal stimulation (plateau) of ATPase activity is reached: basal ATPase activity
T1 construct: made in house; host or cells: Pichia pastoris (chromosomally integrated)
Description: (§1) The sodium salts of conjugated and unconjugated bile acids were dissolved in double-distilled water (ddH2O) or 100% DMSO at a concentration of 100 mM. While glyco-/tauro-/cholic acid (G/T/CA), glyco-/tauro-/chenodeoxycholic acid (G/T/CDCA) were dissolved in ddH2O water, glyco-/tauro-/deoxycholic acid (G/T/DCA), glyco/-tauro-/ursodeoxycholic acid (G/T/UDCA) as wells as Nor-UDCA and taurolithocholic acid (TLCA) were dissolved in DMSO. […] Modulation of the ATP hydrolysis by bile acid was determined in a concentration-dependent manner from 0 to 1,000 μM bile acids.
(§2) Analysis of the ATP activity of ABCB4 was performed by determining the amount of released, free inorganic orthophosphate by the malachite green assay ([53], [54], [60]) with minor modifications. The assay was performed in a total volume of 100 μl consisting of reaction buffer (50 mM Tris HCl, pH 7.4 at 37°C, 100 mM NaCl) supplemented with the 2.5 × cmc of FC-16 and 10 mM MgCl2. For determining the effect of DOPC, different bile acids or combinations thereof, 1–5 μL of the corresponding stock solutions (see lipid and bile acid preparation) were added. Five micrograms of ABCB4 or the BODIPY®-labeled sample was used in every reaction sample. Reaction was started by addition of ATP (5 mM f.c.) and performed for 40 min at 37°C. After 0 and 40 min, the reaction was stopped by transferring 25 μl of the reaction mixture into a 96-well plate containing 175 μl of 20 mM ice-cold sulfuric acid. Additionally, a phosphate standard with concentrations raging from 0 to 500 μM was used. Subsequently, inorganic phosphate was stained by adding 50 μl of dye (0.096% (w/v) malachite green, 1.48% (w/v) ammonium molybdate, 0.173% (w/v) Tween-20, and […] sulfuric acid). After incubation for 15 min, the absorption at 595 nm was measured (iMark™ Microplate Reader, BioRad), and the concentrations of phosphate release were calculated based on the slope of the line calculated based on the phosphate standards.
(§3) Basal ATPase activity of ABCB4 was set to 0% and the effect of supplements was calculated as % stimulation or % inhibition of the basal activity, respectively. For determination of kinetic parameters, bile acid concentration was varied and analyzed according to an allosteric sigmoidal fit (Equation 1):(1) v=vmax∗[S]^h/EC50h+[S]^h
Here, v describes the stimulation (%), vmax is the maximal stimulation (%), EC50 represents the half maximal effective concentration, S is the substrate concentration, and h is the Hill coefficient
In case of inhibition, the reduction (%) was plotted against the bile acid concentration and data were analyzed using Equation 2:(2) y=ymin+(ymax−ymin)/1+10^((logIC50−x)∗slope)
Here, ymax is the smallest, and ymin is the highest amount of inhibition, respectively, and x represents the concentration of the inhibitor. The IC50 value is defined as the concentration necessary to obtain 50% inhibition.
In case of both substrate stimulations, followed by substrate inhibition after maximal stimulation was reached, the modulation (%) was plotted against the substrate concertation and data was analyzed using by two fits: First part (stimulation) was as usually fitted using Equation 1. The second part (substrate inhibition) was analyzed by Equation 3 starting at the last point of the plateau:(3) y=ymin+[…]/(1+x/IC50)
Here, ymax is the highest value of the plateau after stimulation is reached, while ymin is the smallest value of y after maximal stimulation was reached.

[2] = target: T1, human ABCB4; assay: ATP hydrolysis (malachite green) of purified ABCB4 in the presence of 300 μM DOPC (with or without cholesterol); assay type: biochemical; conditions: for activity at 1000 µM / Relative ATPase activity in the presence of 300 μM DOPC: 1,000 μM bile acid/detergent/BAM + 300 μM DOPC; for activity at 1000 µM: read-out: Relative ATPase activity in the presence of 300 μM DOPC; for Decrease of DOPC-stimulated ATPase activity: 1,000 μM + 300 μM DOPC, relative to DOPC alone
Description: A sample of purified ABCB4 was incubated with 10-fold molar excess of BODIPY® FL maleimide (BODIPY® FL N-(2-aminoethyl)maleimide, Molecular Probes) at 22°C for 20 min. The reaction was quenched after 20 min by addition of a 20-fold molar excess of dithiothreitol (DTT) at 22°C for 10 min. Qualitative labeling efficiency was analyzed by visualizing a sample after SDS-PAGE by UV excitation.
DOPC was dissolved in chloroform, the solvent was evaporated, and the dried lipid sample was redissolved in ATP hydrolysis reaction buffer (50 mM Tris HCl, pH 7.4 at 37°C, 100 mM NaCl) at a concentration of 25.4 mM following the protocol of Geertsma et al. ([59]). Prior to the addition of the DOPC sample to the ATP hydrolysis assay, it was diluted to 5 mM, sonicated until a clear solution was obtained, and subsequently used at a final concentration of 300 μM. Since chloroform is not suitable for the later ATPase assay and cholesterol at higher concentration is insoluble in water and nearly all solvents, a molar mixture of cholesterol and DOPC was used. This mixture was obtained by adding the required molar ratio of cholesterol to always the same amount of dried DOPC. Afterward, the mixture was treated identical to DOPC only as described above resulting in a final concentration (f.c.) of 300 μM DOPC with 0–1,000 μM cholesterol in the ATPase assay.
as §1, §2, §3

[3] = Critical micelle concentration by Hoechst 33342 fluorescence in ATPase reaction buffer; assay type: physicochemical; conditions: 50 mM Tris-HCl pH 7.5, 100 mM NaCl, 37°C; no FC-16, MgCl2 or ATP
Description: CMC values were determined as described ([61]). […] 96-well plates suitable for fluorescence spectroscopy (Greiner Bio-One, FIA plate, black, flat bottom, medium binding) were used. […] CMCs of the bile acids were determined in ATPase reaction buffer (50 mM Tris-HCl, pH 7.5 (at 37°C), 100 mM NaCl) containing no FC-16, MgCl2, or ATP at 37°C using a Tecan M200 plate reader (Atlantic lab equipment). Bile acids were dissolved either in ddH2O or in 100% DMSO (as stated in “Lipid, cholesterol and bile acid preparation”) at a concentration of 100 mM. […] In case of hydrophobic bile acids, which were dissolved in DMSO, DMSO concentration was adapted to 1% in all wells. […] After background correction, fluorescence data were analyzed using Prism (version 8, GraphPad) with Equation 4:(4) F=Fmax∗(c[BA]−cmc)/(K0.5−cmc)+(c[BA]−cmc)
The measured fluorescence at each bile acid concentration (c[BA]) is represented by F, while Fmax is the maximal fluorescence, K0.5 is the midpoint of the function, and cmc is the critical micelle concentration of the bile acid.

[4] = vmax of allosteric sigmoidal fit (Equation 1), read-out: Max. Stimulation (%)
[5] = basal = 0%, negative = inhibition, duplicates
[6] = vmax of allosteric sigmoidal fit (Equation 1)

T1 sequence (P21439 1-1279 isoform P21439-2): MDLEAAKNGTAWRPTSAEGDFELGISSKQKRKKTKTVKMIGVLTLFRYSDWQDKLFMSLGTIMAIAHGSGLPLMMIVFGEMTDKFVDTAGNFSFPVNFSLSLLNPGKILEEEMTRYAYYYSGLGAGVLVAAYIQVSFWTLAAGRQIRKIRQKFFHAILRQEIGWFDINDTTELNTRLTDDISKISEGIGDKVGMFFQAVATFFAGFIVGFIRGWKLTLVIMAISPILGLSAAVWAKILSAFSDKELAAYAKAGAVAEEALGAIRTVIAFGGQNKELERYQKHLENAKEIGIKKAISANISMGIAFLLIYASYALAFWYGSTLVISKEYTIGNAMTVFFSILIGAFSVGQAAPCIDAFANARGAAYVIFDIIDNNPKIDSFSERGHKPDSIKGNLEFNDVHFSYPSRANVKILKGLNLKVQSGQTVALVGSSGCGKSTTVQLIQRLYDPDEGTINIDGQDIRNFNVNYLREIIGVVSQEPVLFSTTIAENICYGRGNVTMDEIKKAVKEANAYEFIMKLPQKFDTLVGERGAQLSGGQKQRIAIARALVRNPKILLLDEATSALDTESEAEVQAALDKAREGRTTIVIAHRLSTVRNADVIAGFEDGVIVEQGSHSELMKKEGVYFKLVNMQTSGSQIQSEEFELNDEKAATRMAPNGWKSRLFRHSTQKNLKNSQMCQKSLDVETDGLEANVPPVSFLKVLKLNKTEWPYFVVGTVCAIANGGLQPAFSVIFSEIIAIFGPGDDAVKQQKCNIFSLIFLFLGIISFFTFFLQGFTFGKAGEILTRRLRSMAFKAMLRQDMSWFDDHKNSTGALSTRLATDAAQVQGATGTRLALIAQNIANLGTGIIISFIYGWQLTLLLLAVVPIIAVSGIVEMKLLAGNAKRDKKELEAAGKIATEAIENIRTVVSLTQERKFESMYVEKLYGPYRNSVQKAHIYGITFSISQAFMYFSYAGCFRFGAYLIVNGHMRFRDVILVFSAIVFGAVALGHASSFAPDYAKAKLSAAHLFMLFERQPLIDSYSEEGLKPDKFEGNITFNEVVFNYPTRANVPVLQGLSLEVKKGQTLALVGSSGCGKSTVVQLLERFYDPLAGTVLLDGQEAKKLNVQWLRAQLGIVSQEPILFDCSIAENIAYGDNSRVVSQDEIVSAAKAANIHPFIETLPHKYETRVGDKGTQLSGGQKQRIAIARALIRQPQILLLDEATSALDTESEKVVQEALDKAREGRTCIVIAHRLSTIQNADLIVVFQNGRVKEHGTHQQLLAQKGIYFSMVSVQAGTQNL

Row | Structure (SMILES) | Slope [1] | EC50 ([1]; read-out: EC50) | Emax [1, 4] | activity at 1000 µM ([2]; DOPC alone set to 100%) | Critical micelle concentration (cmc) [3] | Concentration at which maximal stimulation (plateau) of ATPase activity is reached [1] | other results
1 | C[C@H](CCC(=O)NCC(=O)O)[C@H]1CC[C@H]2[C@@H]3[C@@H](O)C[C@@H]4C[C@H](O)CC[C@]4(C)[C@H]3CC[C@]12C [GUDCA] | 4.5 ± 1.0 | 393 µM | 185 ± 13% | 111 ± 3.1% | 1.6 mM and 1.6 ± 0.1 mM |  | 
2 | C[C@H](CCC(=O)NCCS(=O)(=O)O)[C@H]1CC[C@H]2[C@@H]3[C@@H](O)C[C@@H]4C[C@H](O)CC[C@]4(C)[C@H]3CC[C@]12C [TUDCA] | 4.5 ± 1.4 | 267 µM | 154 ± 11% | 88.2 ± 8.3% | 1.5 mM and 1.5 ± 0.2 mM |  | 
3 | C[C@H](CCC(=O)O)[C@H]1CC[C@H]2[C@@H]3[C@H](O)C[C@@H]4C[C@H](O)CC[C@]4(C)[C@H]3C[C@H](O)[C@]12C [CA, cholic acid] | 2.8 ± 0.3 | 390 ± 22.7 µM | 310 ± 16.4% | 117 ± 8.9% | 2.3 mM and 2.3 ± 0.2 mM |  | 
4 | C[C@H](CCC(=O)NCC(=O)O)[C@H]1CC[C@H]2[C@@H]3[C@H](O)C[C@@H]4C[C@H](O)CC[C@]4(C)[C@H]3CC[C@]12C [GCDCA] | 3.9 ± 1.5 | 77.8 ± 7.5 µM | 223 ± 10% | 127 ± 2.8% | 2.6 mM and 2.6 ± 0.1 mM | approximately 150 μM | 
5 | C[C@H](CCC(=O)O)[C@H]1CC[C@H]2[C@@H]3[C@@H](O)C[C@@H]4C[C@H](O)CC[C@]4(C)[C@H]3CC[C@]12C [UDCA, Ursodeoxycholic acid] | 4.6 ± 1.3 | 470 ± 34.5 µM | 110 ± 10.7% | 115 ± 22.1% | 1.3 mM and 1.3 ± 0.1 mM |  | 
6 | CCCCCCCC/C=C\CCCCCCCC(=O)OC[C@H](COP(=O)([O-])OCC[N+](C)(C)C)OC(=O)CCCCCCC/C=C\CCCCCCCC [DOPC, 1,2-dioleoyl-sn-glycero-3-phosphocholine] |  |  |  |  |  |  | ATPase activity of nonlabeled protein ([2]; presence of 300 μM DOPC, 5 μg protein): 488.6 ± 44.5 nmol/min/mg; Specific ATPase activity of ABCB4 (Bodipy-labeled activity subtracted) ([2]; presence of 300 μM DOPC, basal 132.1 ± 13.0): 275.8 ± 24.8 nmol/min/mg; ATPase activity of ABCB4-Bodipy (Bodipy-labeled protein) ([2]; with 300 μM DOPC, non-ABCB4-mediated background): 212.8 ± 19.7 nmol/min/mg
7 | C[C@H](CCC(=O)NCCS(=O)(=O)O)[C@H]1CC[C@H]2[C@@H]3CC[C@@H]4C[C@H](O)CC[C@]4(C)[C@H]3C[C@H](O)[C@]12C [TDCA] | 2.7 ± 0.3 | 102 ± 4.2 µM | 217 ± 4% | 84.8 ± 9.3% | 1.7 mM and 1.7 ± 0.1 mM |  | 
8 | C[C@H](CCC(=O)O)[C@H]1CC[C@H]2[C@@H]3CC[C@@H]4C[C@H](O)CC[C@]4(C)[C@H]3CC[C@]12C [LCA, lithocholic acid] |  |  |  |  | Precipitate ^a |  | 
9 | C[C@H](CCC(=O)NCCC[N+](C)(C)CC(O)CS(=O)(=O)[O-])[C@H]1CC[C@H]2[C@@H]3[C@H](O)C[C@@H]4C[C@H](O)CC[C@]4(C)[C@H]3C[C@H](O)[C@]12C (stereo partly shown) [CHAPSO, 3-[(3-cholamidopropyl)dimethylammonio]-2-hydroxy-1-propanesulfonate] | 4.3 ± 2.5 | 125 ± 23.3 µM |  |  |  | 300 µM | Modulation of basal ATPase activity at 10 μM [1, 5]: –7.5 ± 8.6%; Max. Stimulation (%) [1, 6]: 145.4 ± 15.3%; Decrease of DOPC-stimulated ATPase activity [2]: approximately 50%; Relative ATPase activity in the presence of 300 μM DOPC ([2]; DOPC alone set to 100%): 48.7 ± 3.0%
10 | C[C@H](CCC(=O)NCCS(=O)(=O)O)[C@H]1CC[C@H]2[C@@H]3[C@H](O)C[C@@H]4C[C@H](O)CC[C@]4(C)[C@H]3C[C@H](O)[C@]12C [TCA, taurocholic acid] | 2.6 ± 0.5 |  |  |  | 3.5 mM and 3.5 ± 0.1 mM | approximately 400 μM | EC50 ([1]; EC50 (μM)): 114 µM; Emax ([1]; read-out: Max. Stimulation (%), vmax of allosteric sigmoidal fit (Equation 1)): 539 ± 24%
11 | CC(C)CCC[C@@H](C)[C@H]1CC[C@H]2[C@@H]3CC=C4C[C@@H](O)CC[C@]4(C)[C@H]3CC[C@]12C [Cholesterol] |  |  |  |  |  |  | ATPase activity at cholesterol:DOPC ratio 1.5:1 ([2]; 300 μM DOPC, DOPC alone set to 100%): 190.4 ± 9.4%; Emax ([2]; 300 μM DOPC, DOPC alone set to 100%, cholesterol:DOPC ratios 1-2, read-out: Maximal stimulation of ATPase activity by cholesterol (vmax)): 204 ± 5.9%; ATPase activity at cholesterol:DOPC molar ratio 0.04 ([2]; 300 μM DOPC, DOPC alone set to 100%, considered no stimulation): 119%; EC50 ([2]; cholesterol mixed with 300 μM DOPC, molar ratios 0-3.3 (cholesterol to DOPC)): 210 µM; Slope ([2]; cholesterol mixed with 300 μM DOPC, allosteric sigmoidal fit): 7.8 ± 2.2; Max. Stimulation (%) ([2]; cholesterol mixed with 300 μM DOPC, stimulation in addition to DOPC stimulation): 103.5 ± 5.9%
12 | C[C@H](CCC(=O)NCCC[N+](C)(C)CCCS(=O)(=O)[O-])[C@H]1CC[C@H]2[C@@H]3[C@H](O)C[C@@H]4C[C@H](O)CC[C@]4(C)[C@H]3C[C@H](O)[C@]12C [CHAPS, 3-[(3-cholamidopropyl)dimethylammonio]-1-propanesulfonate] | 3.7 ± 2.1 | 151 ± 20.8 µM |  |  |  | 300 µM | Modulation of basal ATPase activity at 10 μM [1, 5]: –7.1 ± 3.6%; Modulation of basal ATPase activity at 50 μM ([1]; 50 μM, basal = 0%, negative = inhibition, duplicates): –9.9 ± 5.0%; Max. Stimulation (%) [1, 6]: 142.6 ± 11.5%; Decrease of DOPC-stimulated ATPase activity [2]: approximately 50%; Relative ATPase activity in the presence of 300 μM DOPC ([2]; DOPC alone set to 100%): 52.6 ± 6.5%
